These results are taken from paper PMC6130578, “Isolation and identification of three new chromones from the leaves of Pimenta dioica with cytotoxic, oestrogenic and anti-oestrogenic effects” (Pharmaceutical Biology, 2018).

Test [1] relates to Bcl-2 and Bax mRNA in MCF-7 cells. Nature of the test: qPCR for apoptotic gene expression in MCF-7 cells. In kind it is cell-based, human. Particulars: MCF-7, at the IC50, 24 h. How it is done: MCF-7 cells were seeded at a density of 1 × 10^6 cells per well in a six-well plate and incubated overnight for cell attachment. […] Vehicle-treated control cells served as the negative control. The concentration and quality of RNA were determined by measuring absorbance at 260 nm and 280 nm on SynergyHT Take 3 session (Biotek, Winooski, VT) and Gen5 1.11 software.
Total RNA was reverse transcribed and amplified using Power SYBR Green RNA-to-CT 1-step kit (Applied Biosystems, Foster City, CA) as described by manufacturer using a Step-One Plus Real Time PCR System (Applied Biosystem, Foster City, CA). Briefly, each reaction was performed in triplicate in a 10 μL volume containing Power SYBR Green RT-PCR Mix (2×), 200 nM of each primers, RT Enzyme Mix (125×) and 100 ng RNA. The cycling conditions were as follows: 48 °C for 30 min, 95 °C for 10 min, followed by 50 cycles of 95 °C for 15 s and 60 °C for 1 min. PCR reaction specificity was confirmed by melt curve analysis at 95 °C for 15 s, 60 °C for 15 s, 95 °C for 15 s. The quantitation of gene expression was performed using β-actin as an endogenous control and relative to the calibrator (control cells) using the ΔΔCt method. Melting curves for each primer set were performed prior to the use of the primers.
On the technique in general: In qPCR the cycle at which signal appears reflects the starting amount.

Test [2] deals with oestrogen responsive SEAP reporter gene (ERE) in MCF-7 cells. Nature of the test: Oestrogen-responsive SEAP reporter gene assay in transfected MCF-7 cells. It is filed as cell-based, human. Particulars: for fold increase in SEAP expression / SEAP reporter gene expression/activity, compound alone: 1 μM; for fold increase in SEAP expression: compound alone; for SEAP reporter gene expression/activity, compound alone: vs. control; for SEAP activity in combination with E2: 1 μM compound + 10 nM E2. How it is done: In addition to the ERβ binding assay, oestrogenic activity was determined by an oestrogen-responsive reporter gene assay consisting of MCF-7 cells transfected with a construct containing a secreted alkaline phosphatase (SEAP) gene that is induced through an oestrogen response element (ERE). MCF-7 (HTB-22) human breast cancer cells (obtained from American Type Culture Collection, Manassas, VA) were maintained in Dulbecco’s modified Eagle’s medium containing 10% FBS and 100 U/mL penicillin and 100 μg/mL streptomycin in 75 cm^2 flasks. Forty-eight hours prior to transfection, the cells were maintained in phenol red free DMEM medium supplemented with 0.5% FCS, in a humidified atmosphere with 5% CO2 at 37 °C. For transfection, 0.5 × 10^5 cells were seeded per well of a 96-well plate in OPTI-MEM supplemented with dextran-charcoal stripped FBS. After 4 h, serum concentration was reduced to 1%. Prior to transfection, cells were washed with DMEM and incubated in phenol red-free OPTI-MEM without FBS as described by Nozawa et al. ([2005]).
The cells were transfected with the reporter vector pERE-TA-SEAP, coding for the SEAP gene (Clontech, Palo Alto, CA) (Cullen and Malim [1992]; Treeck et al. [2003]). MCF-7 cells were transfected using 0.5 μL Lipofectamine 2000 (Invitrogen, Carlsbad, CA), and 0.1 μg plasmid DNA including the SEAP vector per well of a 96-well plate according to the manufacturer’s instructions. As a negative control, cells were transfected with reporter vector pTA-SEAP2 using Lipofectamine 2000. After 12 h of transfection, the media were replaced with phenol-free Dulbecco’s modified Eagle’s medium containing 10% dextran-coated charcoal stripped FBS. Cells were treated with 1 μM 1–3 with and without 10 nM E2 or 1 μM ICI 182,780. Estradiol was used as the positive control and DMSO as the negative control. Cells were treated for 12 h, then the medium was harvested, centrifuged and 25 μL from each well was transferred to a new 96 well plate. The SEAP activity was measured using the Great EscAPe SEAP Chemiluminescence High-Throughput Detection Kit (Clontech, Palo Alto, CA) using a 96-well luminometer according to the manufacturer’s instructions. To assess novel mechanisms of action other than ER, we tested the extract and fractions in a HER2/neu tyrosine kinase assays (Barbacci et al. [2003]; HTScan HER2/ErbB2 kinase Assay Kit, Cell Signaling Tech., 96-well plates, high throughput), using the methods as described by the manufacturer.
Background: In a reporter assay the amount or activity of a reporter protein is the signal.

Test [3] has as its system MCF-7 cells. Description: Cell viability assay (CellTiter-Glo 2.0), MCF-7. It is filed as cell-based. Particulars: Homo sapiens, MCF7; MCF-7, 72 h; read-out: IC50 (cell growth). How it is done: (§1) MCF-7 and AGS cells were seeded at 2.5 × 10^4 cells in 100 µL/well while NCI-N87 was seeded at 5.0 × 10^4 cells in 100 µL/well in opaque-walled 96-well plate. Control wells containing medium (supplemented with 10% FBS and 1% penicillin/streptomycin) without cells to determine background luminescence were also prepared. The cells were left to attach overnight in the plate. Culture medium was aspirated and fresh medium added to the wells before reconstituted extracts of P. dioica (methanol extract, 50% methanol fraction) and isolated compounds (1–3, and quercitrin) at 100, 50, 20, 10 and 5 µg/mL were added to experimental wells. Drug controls (5-fluorouracil and doxorubicin) and vehicle control (0.02% DMSO) wells were also prepared simultaneously, and the plate was incubated in a humidified incubator at 37 °C in an atmosphere of 5% CO2 for 72 h. At the end of the incubation period, the plate and its contents were equilibrated to room temperature for approximately 30 min. A 100 µL volume of CellTiter-Glo 2.0 Reagent (Promega Corporation, Madison, WI) was added to each well. The contents were mixed for 2 min on an orbital shaker to induce cell lysis and the plate was incubated at room temperature for 10 min to stabilize the luminescent signal. Luminescence signal was read using the Synergy HT Plate reader (Biotek, Winooski, VT) and Gen5 1.11 software. The IC50 defined as the concentration that causes 50% inhibition of cell growth after exposure to extract for 72 h was calculated using log (inhibitor) vs. normalized response analysis with GraphPad Prism 7 (GraphPad Software, Inc., La Jolla, CA).
(In general: In ATP-based viability assays light output follows the ATP content of the culture.)

For the next test, the system named is NCI-N87 cells. Nature of the test: Cell viability assay (CellTiter-Glo 2.0), NCI-N87. In kind it is cell-based. Particulars: Homo sapiens, NCI-N87, 72 h; read-out: IC50 (cell growth). How it is done: as §1
A further test concerns AGS cells. Nature of the test: Cell viability assay (CellTiter-Glo 2.0), AGS. In kind it is cell-based. Particulars: Homo sapiens, 72 h, read-out: IC50 (cell growth). How it is done:
as §1

In test [4] the test system is MCF-7 cells. Description: ApoTox-Glo triplex assay (viability, cytotoxicity, caspase 3/7) in MCF-7 cells. It is filed as cell-based, human. Particulars: MCF-7, 55 µg/mL. How it is done:
Ninety-six (96) well assay plates containing MCF-7 cells in medium at a density of 1.0 × 10^4 cells in 100 µL/well in triplicate were set up. […] Plates were incubated appropriately before addition of 20 μL of viability/cytotoxicity reagent containing both GF-AFC substrate and bis-AAF-R110 substrate to all wells and briefly mixed by orbital shaking (300–500 rpm for ∼30 s). Plates were incubated for 30 min at 37 °C and fluorescence was measured at 400ex/505em (viability) and 485ex/520em (cytotoxicity). A 100 μL volume of Caspase-Glo® 3/7 reagent was added to all wells, briefly mixed by orbital shaking (300–500 rpm for ∼30 s), and incubated for 30 min at room temperature. Luminescence was measured using the Synergy HT Plate reader (Biotek, Winooski, VT) and Gen 5 1.11 software to detect caspase activation.

Another test has as its system caspase 8 in MCF-7 cells. Nature of the test: Caspase-Glo 8 apoptosis assay in MCF-7 cells. Conditions: compound 2 at IC50 concentration (55 µg/mL), 2 h. In kind it is cell-based, human. How it is done:
MCF-7 cells were seeded in triplicate at a density of 3.0 × 10^4 cells in 100 µL/well in opaque-walled 96-well plates. The cells were left to attach overnight in the plate. Compound 2 at 55 µg/mL was added to the test wells. Caspase-Glo® 8 Reagents (Promega Corporation, Madison, WI) were prepared according to manufacturer’s instruction and allowed to equilibrate to room temperature. The test plates containing treated cells as well as controls were removed from the incubator after 2 h of incubation and allowed to equilibrate to room temperature. A 100 μL volume of Caspase-Glo® 8 Reagent was added to each well of a 96-well plate containing 100 μL of cell culture medium (blank), non-treated cells (negative control) in culture medium, and treated cells in culture medium. The contents of wells were gently mixed using a plate shaker at 300–500 rpm for 30 s and incubated at room temperature for 1 h. The luminescence of each sample was read using the Synergy HT Plate reader (Biotek, Winooski, VT) and Gen5 1.11 software.

For a further test, the target named is T1, full-length ERβ (Homo sapiens, UniProt Q92731).
T1 construct: host or cells: Sf9 insect cells
T1 sequence (Q92731 whole entry): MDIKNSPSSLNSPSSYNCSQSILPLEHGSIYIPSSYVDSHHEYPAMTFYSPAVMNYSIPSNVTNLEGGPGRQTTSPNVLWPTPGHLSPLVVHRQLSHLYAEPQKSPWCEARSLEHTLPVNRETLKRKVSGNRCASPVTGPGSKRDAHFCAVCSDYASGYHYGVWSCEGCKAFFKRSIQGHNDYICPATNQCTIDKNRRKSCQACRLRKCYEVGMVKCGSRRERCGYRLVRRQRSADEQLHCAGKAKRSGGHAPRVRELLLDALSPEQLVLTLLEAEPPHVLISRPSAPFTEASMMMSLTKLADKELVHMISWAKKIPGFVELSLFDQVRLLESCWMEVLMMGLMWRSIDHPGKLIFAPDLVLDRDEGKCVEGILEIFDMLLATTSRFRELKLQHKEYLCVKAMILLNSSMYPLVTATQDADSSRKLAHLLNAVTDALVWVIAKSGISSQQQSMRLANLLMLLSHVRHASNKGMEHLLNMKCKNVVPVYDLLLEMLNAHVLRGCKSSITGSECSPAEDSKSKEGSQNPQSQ
Nature of the test: Competitive radioligand oestrogen receptor binding assay (3H-estradiol). Conditions: 0.5 nM 3H-estradiol; tested at 20–100 μg/mL. How it is done: A competitive radioligand-binding assay using full-length ERβ was used in the bioassay-guided fractionation of the crude methanol extract. The assay was performed as previously described (Obourn et al. [1993]; Doyle et al. [2009]). Briefly, recombinant human oestrogen receptor from insect Sf9 cells (α or β) was incubated with the test sample (50 μg/mL) plus 0.5 nM 3H-estradiol at 4 °C overnight. At the completion of incubation, 100 μL of a 50% hydroxylapatite slurry (in […] Tris, pH 7.4, 1 mM EDTA, 1 mM EGTA) was added and allowed to bind the ER-ligand complex for 40 min. The hydroxylapatite was washed three times with 0.5 mL of 40 mM Tris, pH 7.4, 1 mM EDTA, 1 mM EGTA and 11 mM KCl. The hydroxylapatite pellets were suspended in 1 mL of ethanol and counted in 5 mL of scintillation fluid, and the receptor-bound 3H-estradiol was measured. […] The median inhibitory concentration of 1 was determined by testing at concentrations of 20–100 μg/mL. All tests were performed in triplicate, and the results were determined from three independent experiments.

As a reminder, the IC50 is the concentration at which inhibition is half-maximal. In the case of `Cc1c(O)c(C)c2oc(-c3ccc(OC4OC(CO)C(O)C(O)C4O)cc3)cc(=O)c2c1O` (stereo not shown) [Compound 2, syzalterin-4′-O-glucopyranose], in test [1], the “Bax mRNA expression” value is “little effects”, the Bax/Bcl-2 ratio is on record as roughly 3.5 and the “Bcl-2 mRNA expression” value is given as “decreased”. Further, in test [2], the “fold increase in SEAP expression” value amounted to 6.0 fold and the “SEAP reporter gene expression/activity, compound alone” value is listed as “significantly increased SEAP activity”. For the same molecule, the 50% inhibitory concentration (IC50) in the test on MCF-7 cells [3] stood at 54.3 µg/mL. Further, the IC50 in the test with NCI-N87 cells was determined as 51.2 µg/mL. Besides, the half-inhibitory concentration (IC50) with AGS cells was 38.1 µg/mL. For the same molecule, the “apoptosis in MCF-7 cells” value in the test with MCF-7 cells [4] is given as “induced apoptosis”. The “caspase 8 activity” value in the test with caspase 8 in MCF-7 cells was “weakly enhanced”.

For `O=c1[nH]cc(F)c(=O)[nH]1` [Compound 5FU, 5-fluorouracil, reference compound], the IC50 in the test on MCF-7 cells [3] amounted to 1.37 µg/mL; with NCI-N87 cells it was 0.097 µg/mL; in the test with AGS cells it was 18.6 µg/mL.

In the case of `COc1cccc2c1C(=O)c1c(O)c3c(c(O)c1C2=O)C[C@@](O)(C(=O)CO)C[C@@H]3O[C@H]1C[C@H](N)[C@H](O)[C@H](C)O1` [Doxo, doxorubicin, reference compound], the figures for the IC50 in the test with NCI-N87 cells and in the test with AGS cells were 0.048 µg/mL and 0.079 µg/mL, respectively.

For `Cc1c(O)c(C)c2oc(Oc3ccc(O)cc3)cc(=O)c2c1O` [Compound 1, 2-(p-hydroxyphenoxy)-6,8-dimethyl-5,7-dihydroxychromone], the “SEAP activity in combination with E2” value in test [2] is reported as “did not enhance SEAP activity”. For the same molecule, the “SEAP expression in the presence of ICI 182,780” value in test [2] (1 μM compound + 1 μM ICI 182,780) is “attenuated”. The “fold increase in SEAP expression” value in test [2] was determined as 6.2 fold. Also, in test [2], the “SEAP reporter gene expression/activity, compound alone” value was “significantly enhanced”. The IC50 in the test on MCF-7 cells [3] was greater than 100 µg/mL; with NCI-N87 cells, greater than 100 µg/mL; at full-length ERβ it was 390 µM; in the test on AGS cells, greater than 100 µg/mL.

Consider `C[C@@H]1O[C@@H](Oc2c(-c3ccc(O)c(O)c3)oc3cc(O)cc(O)c3c2=O)[C@H](O)[C@H](O)[C@H]1O` [Quercitrin], for which the “SEAP activity in combination with E2” value in test [2] is “some significant anti-oestrogenic effects”. The “SEAP reporter gene expression/activity, compound alone” value in test [2] is “neither quercitrin nor 3 alone significantly enhanced SEAP activity”. Also, the IC50 in the test on MCF-7 cells [3], in the test with NCI-N87 cells and in the test with AGS cells was greater than 100 µg/mL in each case.
